One compound from publication PMC4561586 (Biochimica et biophysica acta, 2015) can be followed below.

For the test, the target named is T1, Nostoc linoleate 10S-dioxygenase (10S-DOX) (Nostoc punctiforme, UniProt B2J5P4).
T1 sequence (B2J5P4 1-542): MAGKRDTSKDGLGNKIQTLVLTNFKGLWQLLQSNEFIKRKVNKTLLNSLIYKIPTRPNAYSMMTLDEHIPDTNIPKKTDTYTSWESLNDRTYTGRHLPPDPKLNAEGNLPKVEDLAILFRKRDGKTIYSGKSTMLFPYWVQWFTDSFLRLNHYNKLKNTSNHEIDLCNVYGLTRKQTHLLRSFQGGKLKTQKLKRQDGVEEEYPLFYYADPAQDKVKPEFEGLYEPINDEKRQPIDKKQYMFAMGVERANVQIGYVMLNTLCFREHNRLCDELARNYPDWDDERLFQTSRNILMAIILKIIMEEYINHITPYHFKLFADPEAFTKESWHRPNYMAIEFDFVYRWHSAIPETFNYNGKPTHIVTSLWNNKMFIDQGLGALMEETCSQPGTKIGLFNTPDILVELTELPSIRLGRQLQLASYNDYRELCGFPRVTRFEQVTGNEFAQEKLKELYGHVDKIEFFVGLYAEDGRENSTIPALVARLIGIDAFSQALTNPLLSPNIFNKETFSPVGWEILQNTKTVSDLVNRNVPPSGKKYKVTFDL
The test is described as follows: oxygen uptake kinetics. It is filed as biochemical.

With `CCCCC/C=C\C/C=C\CCCCCCCC(=O)O` [LA, linoleic acid], the Michaelis-Menten constant (Km) (in general, the substrate concentration at which the rate is half of its maximum) was found to be 60.3 µM.
